Measurements published in patent US12031087B2, “Oxygenated solvents for improved production of oil and gas” (Board of Regents, The University of Texas System, priority 2019, dated 2024).

Assays:
[1] = Density and viscosity of 3p, 3pRB and surfactant solution; format: physicochemical; conditions: 347 K and atmospheric pressure
[2] = IFT experiments by spinning drop tensiometer; format: physicochemical; conditions: 347 K
Procedure: IFT experiments. […] During the measurement, the denser phase was placed into a horizontal tube first, and then a droplet of the less dense phase was placed into the horizontal tube while the tube was rotating. The droplet was deformed owing to the rotation, which was visualized by using a high-power monochromatic light-emitting diode and stroboscope. The shape of a droplet spinning in the capillary tube was recorded by a high-resolution camera.
IFT values were measured for four systems: (1) crude oil and RB, (2) 3p and 1.1-wt % 3 pRB, (3) crude oil and 1.1-wt % 3 pRB, and (4) crude oil diluted by 18.6 wt % 3p and 0.8-wt % 3 pRB. System 1 was at phase equilibrium. A certain level of mass transfer was expected during the IFT measurement for the other three pseudo-binary systems. In system 2, water could transfer from 1.1-wt % 3 pRB to the 3p-rich phase. An IFT was estimated by using the densities of 3p and 1.1-wt % 3 pRB. In system 3, 3p could be transferred from RB to crude oil, which reduced the density of the oleic phase. Therefore, the upper-limit and lower-limit density values were assigned for the oleic phase to calculate a possible range of IFTs for this system. System 4 was tested to validate the range of IFT values estimated for system 3.

[3] = Density of crude oil/3p mixtures (in-line densitometer); format: physicochemical; conditions: 347 K
Procedure: Density and viscosity experiments. […] The system consists mainly of automated pumps, a sample accumulator, an in-line fluid densitometer, an in-line viscometer, an oven, and an effluent accumulator. The pump (Teledyne ISCO 100DX) maintained the system pressure automatically by water.
In the density measuring cell (Anton Paar DMA-HPM), fluid's density is measured in a U-shaped tube, in the range from 0 to 3000 kg/m^3. The instrument precision of the density meter is ±1 kg/m^3. Anton Paar DMA-HPM uses the method of oscillating U-tube for its density measurement, in which the sample's density is calculated from the sample's period of oscillation. The in-line viscometer (ViscoPro 2100) measures the viscosity of a fluid in the range from 0.2 to 2 cp. The instrument precision of the viscometer is ±0.02 cp and repeatability is ±0.5% of the reading. During the viscosity measurement, the magnetic piston is surrounded by the fluid sample and oscillates under magnetic force. The sample's viscosity is calculated from the time required for the piston to complete a two-way cycle. The viscometer and density meter were placed in a Despatch oven (model LAC2-18-8). Light-emitting diode screens that display measured data from the fluid densitometer and viscometer were connected outside the oven. The absolute pressure of the system was measured with a pressure gauge (Omega PX459-2.5KGI-EH).
Densities and viscosities were measured for the following mixtures of crude oil and 3p: 81.4 wt % crude oil and 18.6 wt % 3p (33 mol % 3p), 59.0 wt % crude oil and 41.0 wt % 3p (60 mol % 3p), and 35.1 wt % crude oil and 64.9 wt % 3p (80 mol % 3p). Each mixture was mixed in a glass bottle with a magnetic mixer before placing it in the accumulator.
Before each measurement, the system was cleaned thoroughly with toluene. Then, the system was dried by air and evacuated. Next, the fluid mixture was pumped into the system from the accumulator. Then, the temperature in the oven was increased to 347 K. When the temperature in the oven was stable, the mixture was measured for viscosities and densities at different pressures, ranging from 101 kPa to 10342 kPa.

[4] = Coreflooding of fractured cores with 3pRB or pure 3p slug and material balance (Example 3)
Procedure: Experimental Procedure for Coreflooding. Four Texas cream limestone cores were prepared for coreflooding experiments, having a diameter of 0.0254 m and a length of 0.229 m. […] The porosities, permeabilities and water and oil saturations were measured for all cores. […] The system includes two accumulators for oil and RB, a core holder, a manual pump to maintain the overburden pressure, a pressure gauge, a differential pressure gauge, fluid collectors, and an oven. […] Two Teflon strips of 0.001 m in width and 0.229 m in length were placed inside the fracture to keep an aperture of the fracture. The core halves were put together with the Teflon strips in place, and wrapped with a heat-shrinkable Teflon tube. Finally, the core was placed horizontally inside the core holder with the fracture vertically-oriented. FIG. 27 presents a schematic of the setup for the coreflooding experiments. […] After placing a fractured core in the core holder, the oven temperature was set to reservoir temperature (347 K). […] Fracture permeability was measured using a flow rate of 100 cm^3/hr. […] This range was calculated from available data of fracture conductivity, fracture width, and matrix permeability for shale plays. […] The fracture permeability was then calculated from the fracture aperture by the following equation: kf=b^2/12. […] Then, the produced oil for Δt is expressed as -VP2=([…]). […]

## CCC(=O)CC [3-pentanone]
[1]
  Density: 760 kg/m^3
[2]; 1.1 wt % 3p in aqueous phase
  effect of 3p on IFT between oleic and aqueous phases: essentially no effect
[2]; system 2: 3p and 1.1-wt % 3pRB, atmospheric pressure
  IFT: 10.02 mN/m
[3]; atmospheric pressure
  density of crude oil diluted with 18.6 wt % 3-pentanone: 772 kg/m^3
[3]; crude oil with 18.6 wt % (33 mol %) 3-pentanone, 103.97 kPa
  Density: 771.8049 kg/m^3
[3]; crude oil with 18.6 wt % (33 mol %) 3-pentanone, 1385.02 kPa
  Density: 773.0452 kg/m^3
[3]; crude oil with 18.6 wt % (33 mol %) 3-pentanone, 3452.00 kPa
  Density: 775.0159 kg/m^3
[3]; crude oil with 18.6 wt % (33 mol %) 3-pentanone, 6899.03 kPa
  Density: 778.2247 kg/m^3
[3]; crude oil with 18.6 wt % (33 mol %) 3-pentanone, 10345.03 kPa
  Density: 781.3632 kg/m^3
[3]; crude oil with 41.0 wt % (60 mol %) 3-pentanone, 107.01 kPa
  Density: 768.9360 kg/m^3
[3]; crude oil with 41.0 wt % (60 mol %) 3-pentanone, 1379.02 kPa
  Density: 770.3187 kg/m^3
[3]; crude oil with 41.0 wt % (60 mol %) 3-pentanone, 3447.03 kPa
  Density: 772.3456 kg/m^3
[3]; crude oil with 41.0 wt % (60 mol %) 3-pentanone, 3891.03 kPa
  Density: 775.7424 kg/m^3
[3]; crude oil with 41.0 wt % (60 mol %) 3-pentanone, 10343.03 kPa
  Density: 779.0497 kg/m^3
[3]; crude oil with 64.9 wt % (80 mol %) 3-pentanone, 101.01 kPa
  Density: 765.4374 kg/m^3
[3]; crude oil with 64.9 wt % (80 mol %) 3-pentanone, 1383.02 kPa
  Density: 766.7794 kg/m^3
[3]; crude oil with 64.9 wt % (80 mol %) 3-pentanone, 3445.03 kPa
  Density: 769.0788 kg/m^3
[3]; crude oil with 64.9 wt % (80 mol %) 3-pentanone, 6896.00 kPa
  Density: 772.6733 kg/m^3
[3]; crude oil with 64.9 wt % (80 mol %) 3-pentanone, 10342.00 kPa
  Density: 776.2332 kg/m^3
[4]; core #3 (Swi=0), after 0.36 PVI
  incremental oil recovery, chase RB after 3p slug: 1.1 % OOIP
[4]; core #4 (Swi=0.28), after 1.97 PVI
  incremental oil recovery, chase RB after 3p slug: 3.7 % OOIP
